Results reported in ChEMBL document CHEMBL5226385, “The Antiangiogenic and Antitumor Effects of Scoparasin B in Non-Small-Cell Lung Cancer” (J Nat Prod, 2023).
The source made the active and inactive calls.

Legend:
HUVEC [1] = test: Cytotoxicity against human HUVEC cells assessed as reduction in cell proliferation upto 25 nM measured after 48 hrs by CCK8 assay; assay type: toxicity, cell-based; conditions: 0.025 µM
HUVEC [2] = test: Antiangiogenic activity against human HUVEC cells assessed as inhibition of cell migration measured after 8 hrs by scratch wound healing assay; assay type: functional, cell-based; conditions: dose 5-15 nM
HMEC-1 [3] = test: Antiangiogenic activity against human HMEC-1 cells assessed as inhibition of cell migration measured after 8 hrs by scratch wound healing assay; assay type: functional, cell-based; conditions: dose 5-15 nM
HUVEC [4] = test: Antiangiogenic activity against human HUVEC cells assessed as inhibition of cell migration measured after 24 hrs by Transwell migration assay; assay type: functional, cell-based; conditions: dose 5-15 nM
HUVEC [5] = test: Antiangiogenic activity against human HUVEC cells assessed as inhibition of cell invasion measured after 24 hrs by Transwell invasion assay; assay type: functional, cell-based; conditions: dose 5-15 nM
HMEC-1 [6] = test: Antiangiogenic activity against human HMEC-1 cells assessed as inhibition of cell invasion measured after 24 hrs by Transwell invasion assay; assay type: functional, cell-based; conditions: dose 5-15 nM
HMEC-1 [7] = test: Antiangiogenic activity against human HMEC-1 cells assessed as inhibition of capillary tube-like structure formation at 15 nM incubated for 6 hrs by Matrigel based analysis; assay type: functional; parameters: scale not given: the % may be the effect or the level left
Rattus norvegicus = organism: Rattus norvegicus; test: Ex vivo antiangiogenic activity against Sprague-Dawley rat aorta rings assessed as reduction in microvessel sprouting from aortic rings by measuring reduction in segment formation measured after 6 days by microscopic analysis; assay type: functional; conditions: dose 5-20 nM, time 6.0 day
HMEC-1 [8] = test: Downregulation of VEGF-A protein expression in human HMEC-1 cells at 5 to 15 nM incubated for 36 hrs by western blot analysis; assay type: functional, cell-based; conditions: dose 5-15 nM
HMEC-1 [9] = test: Downregulation of VEGFR2 protein expression in human HMEC-1 cells at 5 to 15 nM incubated for 36 hrs by western blot analysis; assay type: functional, cell-based; conditions: dose 5-15 nM
HUVEC [10] = test: Inhibition of VEGF-A secretion in human HUVEC cells incubated for 36 hrs by ELISA; assay type: functional, cell-based; conditions: dose 5-15 nM
[11] = molecular target: Vascular endothelial growth factor receptor 2 (Homo sapiens) (UniProt P35968); test: Inhibition of VEGF-A-mediated VEGFR2 signaling pathway in human HUVEC cells assessed as reduction in Akt phosphorylation at Thr308 residue at 5 to 15 nM incubated for 36 hrs by western blot analysis; assay type: cell-based; conditions: dose 5-15 nM
Vascular endothelial growth factor receptor 2 (Homo sapiens), sequence (P35968 whole entry): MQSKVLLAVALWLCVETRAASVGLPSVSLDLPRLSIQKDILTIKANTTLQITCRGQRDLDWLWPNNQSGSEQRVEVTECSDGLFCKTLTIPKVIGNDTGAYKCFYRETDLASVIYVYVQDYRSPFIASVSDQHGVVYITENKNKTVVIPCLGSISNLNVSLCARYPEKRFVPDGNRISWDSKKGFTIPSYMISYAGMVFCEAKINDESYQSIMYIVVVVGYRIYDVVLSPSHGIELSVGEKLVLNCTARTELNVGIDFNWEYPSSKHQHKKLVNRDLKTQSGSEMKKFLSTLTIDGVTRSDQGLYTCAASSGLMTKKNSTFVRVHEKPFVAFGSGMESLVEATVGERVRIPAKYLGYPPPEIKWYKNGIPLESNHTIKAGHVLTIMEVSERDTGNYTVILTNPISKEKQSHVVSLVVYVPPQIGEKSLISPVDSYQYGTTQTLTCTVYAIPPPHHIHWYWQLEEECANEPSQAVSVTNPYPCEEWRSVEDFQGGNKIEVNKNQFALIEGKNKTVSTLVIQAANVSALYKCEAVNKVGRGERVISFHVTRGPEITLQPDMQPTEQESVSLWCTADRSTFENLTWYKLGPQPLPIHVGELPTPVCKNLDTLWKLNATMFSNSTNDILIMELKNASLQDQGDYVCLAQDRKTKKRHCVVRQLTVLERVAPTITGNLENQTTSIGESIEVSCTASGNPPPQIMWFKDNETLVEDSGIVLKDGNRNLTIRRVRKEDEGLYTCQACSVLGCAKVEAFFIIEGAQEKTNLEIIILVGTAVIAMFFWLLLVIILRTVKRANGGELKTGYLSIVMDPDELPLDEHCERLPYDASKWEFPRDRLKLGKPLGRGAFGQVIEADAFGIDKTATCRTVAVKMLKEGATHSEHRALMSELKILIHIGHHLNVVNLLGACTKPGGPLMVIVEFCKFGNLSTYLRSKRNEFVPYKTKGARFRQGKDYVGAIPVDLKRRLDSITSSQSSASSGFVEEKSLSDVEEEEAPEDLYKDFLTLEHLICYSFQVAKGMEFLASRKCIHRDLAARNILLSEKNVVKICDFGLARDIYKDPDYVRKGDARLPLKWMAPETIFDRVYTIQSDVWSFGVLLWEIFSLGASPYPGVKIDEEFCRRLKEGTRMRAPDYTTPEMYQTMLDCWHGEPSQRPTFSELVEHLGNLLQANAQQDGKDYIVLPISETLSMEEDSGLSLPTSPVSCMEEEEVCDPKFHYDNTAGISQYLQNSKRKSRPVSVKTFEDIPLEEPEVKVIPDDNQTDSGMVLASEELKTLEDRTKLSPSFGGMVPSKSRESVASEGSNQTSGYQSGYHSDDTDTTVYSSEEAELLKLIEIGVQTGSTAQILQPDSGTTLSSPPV

[12] = molecular target: Vascular endothelial growth factor receptor 2 (Homo sapiens) (UniProt P35968); test: Inhibition of VEGF-A-mediated VEGFR2 signaling pathway in human HUVEC cells assessed as reduction in FAK phosphorylation at Tyr397 residue at 5 to 15 nM incubated for 36 hrs by western blot analysis; assay type: cell-based; conditions: dose 5-15 nM
[13] = molecular target: Vascular endothelial growth factor receptor 2 (Homo sapiens) (UniProt P35968); test: Inhibition of VEGF-A-mediated VEGFR2 signaling pathway in human HMEC-1 cells assessed as reduction in mTOR phosphorylation at Ser2448 residue at 5 to 15 nM incubated for 36 hrs by western blot analysis; assay type: cell-based; conditions: dose 5-15 nM
[14] = molecular target: Platelet-derived growth factor receptor beta (Homo sapiens) (UniProt P09619); test: Inhibition of PDGF-BB-mediated PDGFR-beta signaling axis in human HBVP cells assessed as inhibition of PDGFR-beta phosphorylation at Tyr857 residue at 5 to 15 nM incubated for 24 hrs by western blot analysis; assay type: cell-based; conditions: dose 5-15 nM
Platelet-derived growth factor receptor beta (Homo sapiens), sequence (P09619 whole entry): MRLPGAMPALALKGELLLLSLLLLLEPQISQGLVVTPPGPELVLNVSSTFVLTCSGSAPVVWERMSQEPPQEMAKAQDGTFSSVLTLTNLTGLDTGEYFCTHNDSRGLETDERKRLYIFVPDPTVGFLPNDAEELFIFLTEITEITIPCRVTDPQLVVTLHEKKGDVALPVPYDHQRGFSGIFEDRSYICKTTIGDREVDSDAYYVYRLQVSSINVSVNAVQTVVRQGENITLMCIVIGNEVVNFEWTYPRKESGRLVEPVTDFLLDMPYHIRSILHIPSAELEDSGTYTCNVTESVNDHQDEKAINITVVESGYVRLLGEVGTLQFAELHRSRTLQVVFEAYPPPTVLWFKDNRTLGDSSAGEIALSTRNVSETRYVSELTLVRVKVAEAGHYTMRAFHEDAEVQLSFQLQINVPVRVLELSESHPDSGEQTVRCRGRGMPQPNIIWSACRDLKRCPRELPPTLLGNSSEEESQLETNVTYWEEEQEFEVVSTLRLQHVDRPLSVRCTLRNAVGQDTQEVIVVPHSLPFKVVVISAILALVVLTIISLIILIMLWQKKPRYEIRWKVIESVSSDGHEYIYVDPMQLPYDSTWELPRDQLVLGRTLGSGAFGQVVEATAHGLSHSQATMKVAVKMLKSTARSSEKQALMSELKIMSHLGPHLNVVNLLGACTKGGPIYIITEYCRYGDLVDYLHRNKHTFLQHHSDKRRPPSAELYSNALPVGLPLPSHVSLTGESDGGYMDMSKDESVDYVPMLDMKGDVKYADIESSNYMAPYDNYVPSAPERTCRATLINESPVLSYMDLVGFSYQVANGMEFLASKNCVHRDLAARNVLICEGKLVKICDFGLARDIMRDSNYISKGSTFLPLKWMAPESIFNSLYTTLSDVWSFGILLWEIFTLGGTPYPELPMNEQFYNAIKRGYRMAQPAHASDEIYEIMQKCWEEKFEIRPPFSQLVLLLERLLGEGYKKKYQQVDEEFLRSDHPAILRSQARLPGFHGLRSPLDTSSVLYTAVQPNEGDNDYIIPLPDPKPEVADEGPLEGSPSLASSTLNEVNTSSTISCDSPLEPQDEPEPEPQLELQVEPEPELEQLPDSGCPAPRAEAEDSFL

HBVP = test: Inhibition of PDGFR-beta protein expression in human HBVP cells at 5 to 15 nM incubated for 24 hrs by western blot analysis; assay type: functional, cell-based; conditions: dose 5-15 nM
NCI-H1299 [15] = test: Inhibition of vasculogenic-mimicry in human NCI-H1299 cells assessed as inhibition of cell migration at 5 to 15 nM measured after 24 hrs by Transwell migration assay; assay type: functional, cell-based; conditions: dose 5-15 nM
NCI-H1299 [16] = test: Downregulation of VE-Cadherin protein expression in human NCI-H1299 cells at 5 to 15 nM incubated for 24 hrs by western blot analysis; assay type: functional, cell-based; conditions: dose 5-15 nM
NCI-H1299 [17] = test: Downregulation of Snail protein expression in human NCI-H1299 cells at 5 to 15 nM incubated for 24 hrs by western blot analysis; assay type: functional, cell-based; conditions: dose 5-15 nM
NCI-H1299 [18] = test: […] of E-Cadherin protein expression in human NCI-H1299 cells at 5 to 15 nM incubated for 24 hrs by western blot analysis; assay type: functional, cell-based; conditions: dose 5-15 nM
NCI-H1299 [19] = test: Downregulation of MMP9 protein expression in human NCI-H1299 cells at 5 to 15 nM incubated for 24 hrs by western blot analysis; assay type: functional, cell-based; conditions: dose 5-15 nM
NCI-H1299 [20] = test: Downregulation of Vimentin mRNA expression in human NCI-H1299 cells at 5 to 15 nM incubated for 24 hrs by qPCR analysis; assay type: functional, cell-based; conditions: dose 5-15 nM
NCI-H1299 [21] = test: Upregulation of E-Cadherin mRNA expression in human NCI-H1299 cells at 5 to 15 nM incubated for 24 hrs by qPCR analysis; assay type: functional, cell-based; conditions: dose 5-15 nM
NCI-H1299 [22] = test: Inhibition of VEGF-A secretion in human NCI-H1299 cells at 5 to 15 nM incubated for 24 hrs by ELISA; assay type: functional, cell-based; conditions: dose 5-15 nM
NCI-H1299 [23] = test: Antitumor activity against human NCI-H1299 cells xenografted in BALB/c nude mouse assessed as tumor volume at 0.75 mg/kg, ip administered every other day for 20 days by vernier caliper analysis (reference value: 1206.46 +/-332.44 mm3); assay type: functional; conditions: time 20 day
NCI-H1299 [24] = test: Antitumor activity against human NCI-H1299 cells xenografted in BALB/c nude mouse assessed as reduction in tumor weight at 0.75 to 1.5 mg/kg, ip administered every other day for 20 days; assay type: functional, organism-based; conditions: dose 0.75-1.5 mg/kg, time 20.0 day
[25] = Toxicity against BALB/c nude mouse xenografted with human NCI-H1299 cells assessed as morphological changes in heart at 0.75 to 1.5 mg/kg, ip administered every other day for 20 days by Hematoxylin and eosin staining based inverted microscopic analysis; assay type: organism-based; conditions: in vivo, 480 h, dose 0.75-1.5 mg/kg, time 20 day
[26] = Toxicity against BALB/c nude mouse xenografted with human NCI-H1299 cells assessed as morphological changes in liver at 0.75 to 1.5 mg/kg, ip administered every other day for 20 days by Hematoxylin and eosin staining based inverted microscopic analysis; assay type: organism-based; conditions: in vivo, 480 h, dose 0.75-1.5 mg/kg, time 20 day
[27] = Toxicity against BALB/c nude mouse xenografted with human NCI-H1299 cells assessed as morphological changes in spleen at 0.75 to 1.5 mg/kg, ip administered every other day for 20 days by Hematoxylin and eosin staining based inverted microscopic analysis; assay type: organism-based; conditions: in vivo, 480 h, dose 0.75-1.5 mg/kg, time 20 day
NCI-H1299 [28] = test: Antitumor activity against human NCI-H1299 cells xenografted in BALB/c nude mouse assessed as increase in tumor necrotic areas at 0.75 to 1.5 mg/kg, ip administered every other day for 20 days by Hematoxylin and eosin staining based inverted microscopic analysis; assay type: functional, organism-based; conditions: dose 0.75-1.5 mg/kg, time 20.0 day
Mus musculus [29] = test: Inhibition of tumor angiogenesis in BALB/c nude mouse xenografted with human NCI-H1299 cells assessed as reduction in microvessel density of the tumor at 0.75 to 1.5 mg/kg, ip administered every other day for 20 days by CD31 staining based immunohistochemical analysis; assay type: functional, organism-based; conditions: dose 0.75-1.5 mg/kg, time 20.0 day
Mus musculus [30] = test: Inhibition of tumor angiogenesis in BALB/c nude mouse xenografted with human NCI-H1299 cells assessed as reduction in […] cells in tumor at 1.5 mg/kg, ip administered every other day for 20 days by immunohistochemical analysis; assay type: functional, organism-based; conditions: time 20.0 day
Mus musculus [31] = test: Inhibition of vasculogenic-mimicry in BALB/c nude mouse xenografted with human NCI-H1299 cells assessed as reduction in pericyte coverage around CD31-positive endothelial blood vessels at 0.75 to 1.5 mg/kg, ip administered every other day for […] by immunofluorescence analysis; assay type: functional, organism-based; conditions: dose 0.75-1.5 mg/kg

COc1ccc(C[C@@H]2NC(=O)[C@@]34OC(=O)O/C=C/[C@@](C)(O)C(=O)[C@@H](C)C/C=C/[C@H]3[C@H](O)[C@](C)(O)[C@@H](C)[C@@H]24)cc1 [SCOPARASIN B]
active: Activity (HUVEC [2]) Dose-Dependent Effect | Activity (HMEC-1 [3]) Dose-Dependent Effect | Activity (HUVEC [4]) Dose-Dependent Effect | Activity (HUVEC [5]) Dose-Dependent Effect | Activity (HMEC-1 [6]) Dose-Dependent Effect | Activity (Rattus norvegicus) Dose-Dependent Effect | inhibition (HMEC-1 [8]) | inhibition (HUVEC [10]) Dose-Dependent Effect | inhibition [11] | inhibition [12] | inhibition [13] | inhibition [14] | inhibition (NCI-H1299 [15]) | inhibition (NCI-H1299 [16]) | inhibition (NCI-H1299 [17]) | inhibition (NCI-H1299 [18]) | inhibition (NCI-H1299 [19]) | inhibition (NCI-H1299 [20]) | Activity (NCI-H1299 [21]) | inhibition (NCI-H1299 [22]) | Activity (NCI-H1299 [24]) | Activity (NCI-H1299 [28]) | inhibition (Mus musculus [29]) | inhibition (Mus musculus [30]) | inhibition (Mus musculus [31])
inactive: inhibition (HMEC-1 [9]) | inhibition (HBVP)
Non-Toxic: Activity (HUVEC [1]) | Activity [25] | Activity [26] | Activity [27]
559.86 mm3: Activity (NCI-H1299 [23])
100%: Activity (HMEC-1 [7])
